Experimental data from PMC12235220, “Cell‐Penetrating Peptide‐Based Triple Nanocomplex Enables Efficient Nuclear Gene Delivery in Chlamydomonas reinhardtii” (Biotechnology and Bioengineering, 2025).

Tested on: C. reinhardtii cells
Assay: Cellular uptake mechanism of triple nanocomplexes with the endocytosis inhibitor wortmannin
Format: cell-based, Chlamydomonas reinhardtii
Conditions: wortmannin 33 µM pretreatment 1 h, then pVEC-R6A/Cy3-labeled DNA/SV40 nanocomplex 1 h at 25°C; control TAP with 5% DMSO; microplate reader
Description: To evaluate the cellular uptake mechanism of the triple nanocomplexes in microalgae, a fluorescence‐based assay was performed with wortmannin (Sigma‐Aldrich, USA) to determine the potential involvement of endocytosis in the process. A volume of 100 µL of C. reinhardtii cells (1.5 × 10^7 cells mL^−1) per well was seeded in a 96‐well plate with wortmannin at a final concentration of 33 µM. Cells treated with TAP medium containing 5% dimethyl sulfoxide were used as controls. […] Finally, the Cy3 fluorescence intensity of the samples was measured at 532 nm using a TECAN microplate reader (Bionics, Korea).

In the case of `COC[C@H]1OC(=O)c2coc3c2[C@@]1(C)C1=C(C3=O)[C@@H]2CCC(=O)[C@@]2(C)C[C@H]1OC(C)=O` [wortmannin], the “Reduction of normalized Cy3/chlorophyll a level compared to control” value is reported as 50%.
